Key:
[1] = tested on: Gaeumannomyces graminis var. tritici (Ggt); test: In vitro Assay: mycelial growth of Ggt on minimal media agar plates containing test compound; assay type: cell-based; conditions: Gaeumannomyces graminis, dark, 19-20° C., 4 to 5 days, diameter of mycelial growth; for inhibition at 0.1 ppm: 0.1 ppm in minimal media agar, read-out: In vitro (ppm) 0.1, Percent Inhibition; for inhibition at 1 ppm: 1 ppm in minimal media agar, read-out: In vitro (ppm) 1, Percent Inhibition; for inhibition at 10 ppm: 10 ppm in minimal media agar, read-out: In vitro (ppm) 10, Percent Inhibition
Method in brief: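 Ggt mycelial diameter read after 4 to 5 days in darkness at 19-20° C, from three 4-mm plugs placed on Czapek Dox minimal agar containing test compound delivered in acetone. Inhibition expressed as percent versus untreated plates, plug size (4 mm) subtracted from both.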

Ggt = test: In vivo Assay: control of Ggt on wheat grown in pots of Ggt-infested soil, root disease rating; design: species or system Gaeumannomyces graminis var. tritici; conditions: Gaeumannomyces graminis, 672 h; 0.5 mg active ingredient per pot; 'Bergen' or 'Anza' wheat in Ggt-infested soil; after four weeks; vs untreated control; read-out: In vivo, percent disease control
Method in brief: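 Wheat ('Bergen' or 'Anza') seeds in soil infested with Ggt-colonised oats (4% v/v) treated at 0.5 mg active ingredient per pot in acetone/water with Tween 20; five pots per treatment. After four weeks, seminal roots rated 0–5; trimmed mean of three replicates converted to percent disease control versus untreated.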

| Compound | melting point [°C] | inhibition at 0.1 ppm [1] [%] | inhibition at 1 ppm [1] [%] | inhibition at 10 ppm [1] [%] | pest or weed control at 0.5 mg/pot (Ggt) [%] |
| --- | --- | --- | --- | --- | --- |
| CC1(c2cccc(F)c2C(=O)NCCCl)CCC1 [Example 199, N-(2-Chloroethyl)-2-fluoro-6-(1-methylcyclobutyl)benzamide] | 108 to 110 | – | – | – | – |
| CCNC(=O)c1ccccc1[Si](C)(C)C [Example 49, N-Ethyl-2-(trimethylsilyl)benzamide] | – | 100 | 100 | 100 | 97 |
| CCNC(=O)c1sc([Si](C)(C)C)cc1[Si](C)(C)C [Example 249, N-Ethyl-3,5-bis(trimethylsilyl)-2-thiophenecarboxamide] | – | 17 | 48 | 100 | 60 |
| CNC(=O)c1c(Cl)cccc1[Si](C)(C)C [Example 19, 2-Chloro-N-methyl-6-(trimethylsilyl)-benzamide] | – | < 0 | 7 | 29 | 38 |
| CC(C)N(O)C(=O)c1c(Cl)cccc1[Si](C)(C)C [Example 167, 2-Chloro-N-hydroxy-N-(1-methylethyl)-6-(trimethylsilyl)benzamide] | – | 46 | 86 | 96 | 93 |
| CCOc1ccccc1NC(=O)c1c(Cl)cccc1[Si](C)(C)C [Example 157, 2-Chloro-N-(2-ethoxyphenyl)-6-(trimethylsilyl)benzamide] | – | 7 | 23 | 91 | 0 |
| CCN(C(=O)OC(C)(C)C)C(=O)c1c(Cl)cccc1[Si](C)(C)C [Example 211, [2-Chloro-6-(trimethylsilyl)benzoyl]ethylcarbamic acid, 1,1-dimethylethyl ester] | – | < 0 | 82 | 90 | 96 |
| CCNC(=O)c1c(Cl)cccc1[Si](C)(C)CBr [Example 210, 2-[(Bromomethyl)dimethylsilyl]-6-chloro-N-ethyl-benzamide] | – | 85 | 88 | 94 | 74 |
| CCNC(=O)c1ccccc1N(C)C(C)(C)C [Example 188, 2-[(1,1-Dimethylethyl)methylamino]-N-ethylbenzamide] | – | 29 | 71 | 100 | 15 |
| C[Si](C)(C)c1cccc(Cl)c1C(=O)NCCCl [Example 29, 2-Chloro-N-(2-chloroethyl)-6-(trimethylsilyl)benzamide] | – | 100 | 100 | 100 | 97 |
| CCN(CC)C(=O)c1c(Cl)cccc1[Si](CC)(CC)CC [Example 66, N,N-Diethyl-2-chloro-6-(triethylsilyl)benzamide] | – | < 0 | < 0 | 58 | 3 |
| C[Si](C)(C)c1cccc(Cl)c1C(=O)N1CCCCC1 [Example 134, N-[2-Chloro-6-(trimethylsilyl)benzoyl]-piperidine] | – | < 0 | 3 | 39 | < 0 |
| C[Si](C)(C)c1cccc(Cl)c1C(=O)N1CCOCC1 [Example 132, N-[2-Chloro-6-(trimethylsilyl)benzoyl]-morpholine] | – | 54 | 15 | 46 | < 0 |
| CCNC(=O)c1cc(N)ccc1[Si](C)(C)C [Example 217, 5-Amino-N-ethyl-2-(trimethylsilyl)benzamide] | – | 16 | 68 | 100 | 0 |
| CCN(SC)C(=O)c1sccc1[Si](C)(C)C [Example 272, N-Ethyl-N-(methylthio)-3-(trimethylsilyl)-2-thiophenecarboxamide] | – | 14 | 23 | 100 | 0 |
| CC(CCl)NC(=O)c1c(Cl)cccc1[Si](C)(C)C (stereo not drawn) [Example 171, 2-Chloro-N-(2-chloro-1-methylethyl)-6-(trimethylsilyl)benzamide] | 150 to 151 | 48 | 88 | 97 | 87 |
| CN1CCN(C(=O)c2c(Cl)cccc2[Si](C)(C)C)CC1 [Example 133, N-[2-Chloro-6-(trimethylsilyl)benzoyl]-4-methylpiperazine] | – | 13 | 3 | 18 | < 0 |

— patent publication US6410558B1, “Fungicides for the control of take-all disease of plants” (Monsanto Technology LLC, priority 1991, dated 2002)
